Experimental data reported in patent US9156811B2 (priority 2008, dated 2015).

The compounds below were run on Trypanosome (T. brucei brucei) (assay: In-vitro antitrypanosomal efficacy assay (cell growth, resazurin)). Details: T. brucei brucei, blood stream form, variant 221.
Type: cell-based
Experimental: To column 12, 200 μl media was added to provide a no cells control. Plates were then incubated at 37° C. in an atmosphere of 5% CO2 for 69 hours, before the addition of 20 μl of 500 μM rezasurin solution, and a further incubation period of 4 hours. […] Concentration effect curves were fitted using non-linear regression using XLFit 4.2 and EC50 values determined.

SMILES	ED50 (μM) T. brucei [µM]
Cc1c(N(C(F)F)[S+](=O)([O-])c2c(Cl)cc(-c3ccnc(N4CCNCC4)c3)cc2Cl)c(CC(C)C)nn1C [DDD100886]	0.004
CCN(c1c(C)nn(C)c1C)[S+](=O)([O-])c1c(Cl)cc(CCCC2CCNCC2)cc1Cl [DDD100091]	0.004
Cc1ccc(-c2ccc([S+](=O)([O-])Nc3c(CC(C)C)nn(C)c3C)cc2)cc1CN(C)C [DDD99824]	0.014
Cc1nn(C)c(C)c1N(C)[S+](=O)([O-])c1ccc(CCCCCCCN(C)C)cc1 [DDD99825]	0.054
Cc1nn(C)c(C)c1N(CC(F)(F)F)[S+](=O)([O-])c1c(Cl)cc(CCCN2CCCN(C)CC2)cc1Cl [DDD100157]	0.014
Cc1nn(C)c(C)c1N(C(F)F)[S+](=O)([O-])c1ccc(-c2ccnc(N3CCNCC3)c2)cc1 [DDD100888]	0.003

Same assay, conditions: T. brucei cell growth

SMILES	ED50 (μM) T. brucei [µM]
Cc1nn(C)c(C)c1N[S+](=O)([O-])c1ccc(CCCC2CCNCC2)cc1 [DDD99758]	0.110
Cc1cc([S+](=O)([O-])Nc2c(C)nn(C)c2C)ccc1Br [DDD71235]	>1
C=CCN(c1c(C)nn(C)c1C)[S+](=O)([O-])c1c(Cl)cc(Br)cc1Cl [DDD85638]	>1
Cc1nn(C)c(C)c1N(C)[S+](=O)([O-])c1ccc(-c2cccc(CN3CCN(C)CC3)c2)cc1 [DDD88196, 3′-(4-Methyl-piperazin-1-ylmethyl)-biphenyl-4-sulfonic acid methyl-(1,3,5-trimethyl-1H-pyrazol-4-yl)-amide]	0.05
CCN(CC)Cc1ccc(-c2cc(Cl)c([S+](=O)([O-])Nc3c(C)nn(C)c3C)c(Cl)c2)cc1 [DDD85639]	>1
Cc1nn(C)c(C)c1N(C)[S+](=O)([O-])c1c(Cl)cc(-c2cccc(CN3CCN(C)CC3)c2)cc1Cl [DDD90118]	0.015
Cc1nn(C)c(C)c1N[S+](=O)([O-])c1ccc(N2CCCC(N3CCNCC3)C2)nc1 (centres unmarked) [DDD87757]	0.003
Cc1nn(C)c(C)c1N[S+](=O)([O-])c1ccc(-c2ccnc(N3CCCCC3)c2)cc1 [DDD87749, 4-(3,4,5,6-Tetrahydro-2H-[1,2′]bipyridinyl-4′-yl)-N-(1,3,5-trimethyl-1H-pyrazol-4-yl)-benzenesulfonamide]	1.28
Cc1nn(C)c(C)c1N[S+](=O)([O-])c1ccc(-c2cccc(CN3CCCC3)c2)cc1 [DDD86318, 3′-Pyrrolidin-1-ylmethyl-biphenyl-4-sulfonic acid (1,3,5-trimethyl-1H-pyrazol-4-yl)-amide]	0.21
Cc1nn(C)c(C)c1N(C)[S+](=O)([O-])c1ccc(CCCC2CCNCC2)cc1 [DDD90112]	0.270
Cc1nn(C)c(C)c1N[S+](=O)([O-])c1ccc(N2CCC(N(C)C)C2)nc1 (centres unmarked) [DDD86306]	>1
Cc1nn(C)c(C)c1N(C)[S+](=O)([O-])c1ccc(-c2cccc(CC3CCNCC3)c2)cc1 [DDD90098]	0.060
Cc1nn(C)c(C)c1N[S+](=O)([O-])c1ccc(-c2cccc(CN3CCN(C(=O)OC(C)(C)C)CC3)c2)cc1 [DDD86315, 4-[4′-(1,3,5-Trimethyl-1H-pyrazol-4-ylsulfamoyl)-biphenyl-3-ylmethyl]-piperazine-1-carboxylic acid tert-butyl ester]	>1
C#CCN(c1c(C)nn(C)c1C)[S+](=O)([O-])c1c(Cl)cc(Br)cc1Cl [DDD85630]	>1
Cc1c(N[S+](=O)([O-])c2ccc(-c3ccnc(N4CCNCC4)c3)cc2)cnn1C [DDD87995, N-(1,5-Dimethyl-1H-pyrazol-4-yl)-4-(2-piperazin-1-yl-pyridin-4-yl)-benzenesulfonamide]	0.02
CCN(CC)Cc1cccc(-c2cc(Cl)c([S+](=O)([O-])N(C)c3c(C)nn(C)c3C)c(Cl)c2)c1 [DDD88641]	0.31
Cc1nn(C)c(C)c1N[S+](=O)([O-])c1ccc(CCCN2CCNCC2)cc1 [DDD88580]	1.13
